In patent US20230145835A1, “Modulators of Alpha-4-beta-7 Integrin and MAdCAM” (48HD Biopharma Inc., priority 2021, published 2023):
pIC50: −log10 of the molar value. Numbered stars: 1 amine (or outer) side, 2 acyl side, 3 side chain; on linkers, the order of the positions; unused ones are H or OH. Bridge positions count the residues as written; N and C are the ends. Square brackets hold non-standard residues; d marks the D form. Peptide text beside a SMILES is read from it. I, II: the chains in the order shown. CO(CH2CH2O)5CH2CH2CO = O=C(CCOCCOCCOCCOCCOCCC(=O)[*:2])[*:1]; X3 = O=C(/C=N/OCCCCCCOc1cc(C[*:2])cc(C[*:3])c1)[*:1]; X1 = O=C(C=NOCCCCCCOc1cc(C[*:2])cc(C[*:3])c1)[*:1]; X5 = O=C(CCCCCCOc1cc(C[*:2])cc(C[*:3])c1)[*:1]; tBuAla = CC(C)(C)C[C@H](N)C(=O)O; Met(O) = CS(=O)CC[C@H](N)C(=O)O; hSer = N[C@@H](CCO)C(=O)O; Nle = CCCC[C@H](N)C(=O)O

target: T1, rh-integrin α4β7/LPAM-1 (Homo sapiens, UniProt P13612+P26010); assay: α4β7-MadCAM Competition ELISA (Example 4); assay type: binding; details: IC50, Table 3 Representative compounds; inhibition of MAdCAM binding to coated α4β7
T1 sequence (P13612 34-977 limits assumed): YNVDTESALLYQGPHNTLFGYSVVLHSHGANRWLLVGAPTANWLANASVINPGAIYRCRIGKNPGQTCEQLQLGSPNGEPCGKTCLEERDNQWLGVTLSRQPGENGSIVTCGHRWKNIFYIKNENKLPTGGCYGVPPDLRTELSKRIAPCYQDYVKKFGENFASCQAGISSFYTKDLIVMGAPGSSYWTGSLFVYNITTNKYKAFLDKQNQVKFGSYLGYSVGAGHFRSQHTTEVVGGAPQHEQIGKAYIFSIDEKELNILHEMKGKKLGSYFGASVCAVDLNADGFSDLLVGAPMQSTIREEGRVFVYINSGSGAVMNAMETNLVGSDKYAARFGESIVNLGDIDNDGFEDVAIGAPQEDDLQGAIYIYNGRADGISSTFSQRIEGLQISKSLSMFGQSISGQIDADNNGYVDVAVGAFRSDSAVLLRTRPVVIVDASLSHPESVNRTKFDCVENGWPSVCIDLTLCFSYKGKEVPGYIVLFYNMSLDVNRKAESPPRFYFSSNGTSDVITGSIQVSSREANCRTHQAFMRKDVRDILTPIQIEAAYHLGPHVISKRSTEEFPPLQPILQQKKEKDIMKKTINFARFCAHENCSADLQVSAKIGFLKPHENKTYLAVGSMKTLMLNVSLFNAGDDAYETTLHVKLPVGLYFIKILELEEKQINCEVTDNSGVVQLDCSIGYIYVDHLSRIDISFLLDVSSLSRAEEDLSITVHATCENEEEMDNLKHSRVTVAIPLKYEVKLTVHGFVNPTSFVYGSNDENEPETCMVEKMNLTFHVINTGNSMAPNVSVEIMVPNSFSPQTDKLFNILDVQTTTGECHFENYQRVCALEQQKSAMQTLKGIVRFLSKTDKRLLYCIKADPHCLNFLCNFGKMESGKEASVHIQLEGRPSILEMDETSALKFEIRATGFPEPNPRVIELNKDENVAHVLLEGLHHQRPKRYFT
T1 sequence (P26010 20-723 limits assumed): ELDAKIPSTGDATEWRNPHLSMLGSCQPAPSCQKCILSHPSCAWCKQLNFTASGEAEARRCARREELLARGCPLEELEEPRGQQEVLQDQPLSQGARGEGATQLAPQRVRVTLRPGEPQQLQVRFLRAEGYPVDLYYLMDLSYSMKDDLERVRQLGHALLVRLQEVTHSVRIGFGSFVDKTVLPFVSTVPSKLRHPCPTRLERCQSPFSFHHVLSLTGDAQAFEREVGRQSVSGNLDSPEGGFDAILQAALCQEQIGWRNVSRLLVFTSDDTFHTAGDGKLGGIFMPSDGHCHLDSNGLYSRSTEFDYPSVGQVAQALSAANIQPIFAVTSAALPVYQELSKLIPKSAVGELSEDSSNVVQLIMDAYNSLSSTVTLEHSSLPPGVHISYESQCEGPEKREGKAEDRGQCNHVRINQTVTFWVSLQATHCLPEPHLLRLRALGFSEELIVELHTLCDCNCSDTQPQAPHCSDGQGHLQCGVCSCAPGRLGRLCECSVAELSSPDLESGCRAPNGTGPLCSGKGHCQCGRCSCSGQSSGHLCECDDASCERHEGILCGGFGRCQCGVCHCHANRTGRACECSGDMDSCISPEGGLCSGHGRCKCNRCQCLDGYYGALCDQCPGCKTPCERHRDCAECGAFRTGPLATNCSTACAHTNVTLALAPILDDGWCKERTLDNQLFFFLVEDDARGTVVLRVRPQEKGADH
Protocol: After washing with wash buffer, 200 μL assay buffer was added to each well and incubated for one hour at 28° C. After another wash with wash buffer, 100 μL of a MAdCAM and peptide mixture in assay buffer was added to each well and incubated for one hour at 28° C., followed by washing with wash buffer.

Row | SMILES | pIC50
1 | CC[C@H](C)[C@@H]1NC(=O)[C@H](CC(=O)O)NC(=O)[C@H](CCOC)NC(=O)[C@@H]2CCCN2C(=O)[C@@H]2CSCc3cc(cc(c3)OCCCCCCO/N=C/C(=O)N[C@@H](CCCNC(=N)N)C(=O)N2)CSC[C@@H](C(N)=O)NC(=O)[C@H](CCC(=O)O)NC(=O)[C@H](Cc2ccc(O)cc2)NC(=O)[C@H](Cc2c[nH]c3ccccc23)NC1=O [compound 48, TSL6- SRCP{Hse(OMe)} DIWYEC] (RCP[hSer](Me)DIWYEC-NH2; linker N-2-10 via X3) | 5.77

same assay, conditions: Table 3 Representative compounds; inhibition of MAdCAM binding to coated α4β7; read-out: IC50

Row | SMILES | pIC50
2 | CCCC[C@@H]1NC(=O)[C@@H]2CCCN2C(=O)[C@@H]2CSCc3cc(cc(c3)OCCCCCCO/N=C/C(=O)N[C@@H](CCCNC(=N)N)C(=O)N2)CSC[C@@H](C(N)=O)NC(=O)[C@H](CCCCN)NC(=O)[C@H](C(C)C)NC(=O)[C@H](Cc2c[nH]c3ccccc23)NC(=O)[C@H]([C@@H](C)CC)NC(=O)[C@H](CC(=O)O)NC1=O [compound 27, TSL6- SRCP{Nle} DIWVKC] (RCP[Nle]DIWVKC-NH2; linker N-2-10 via X3) | 6.21
3 | C[C@@H]1NC(=O)[C@@H]2CCCN2C(=O)[C@@H]2CSCc3cc(cc(c3)OCCCCCCO/N=C/C(=O)N[C@@H](CCCCN)C(=O)N2)CSC[C@@H](C(N)=O)NC(=O)[C@H](CCC(=O)O)NC(=O)[C@H](Cc2ccc(O)cc2)NC(=O)[C@@H]2CCCN2C(=O)[C@H]([C@@H](C)O)NC(=O)[C@H](CC(=O)O)NC1=O [compound 109, TSL- 6SKCPADTPYEC] (KCPADTPYEC-NH2; linker N-2-10 via X3) | < 3.30
4 | CCCC[C@@H]1NC(=O)[C@@H]2CCCN2C(=O)[C@@H]2CSCc3cc(cc(c3)OCCCCCCC(=O)NCC(=O)N[C@@H](CCCNC(=N)N)C(=O)N2)CSC[C@@H](C(N)=O)NC(=O)[C@H](CCC(=O)O)NC(=O)[C@H](CCC(N)=O)NC(=O)[C@H](Cc2c[nH]c3ccccc23)NC(=O)[C@H]([C@@H](C)CC)NC(=O)[C@H](CC(=O)O)NC1=O [compound 4] (GRCP[Nle]DIWQEC-NH2; linker N-3-11 via X5) | 7.12
5 | CC(C)C[C@@H]1NC(=O)[C@@H]2CCCN2C(=O)[C@@H]2CSCc3cc(cc(c3)OCCCCCCO/N=C/C(=O)N[C@@H](CCCCN)C(=O)N2)CSC[C@@H](C(N)=O)NC(=O)[C@H](CCC(=O)O)NC(=O)[C@H](Cc2ccc(O)cc2)NC(=O)[C@@H]2CCCN2C(=O)[C@H](CC(C)C)NC(=O)[C@H](CC(=O)O)NC1=O [compound 19] (KCPLDLPYEC-NH2; linker N-2-10 via X3) | 6.44
6 | CC(C)C[C@@H]1NC(=O)[C@H](Cc2ccccc2)NC(=O)[C@@H]2CSCc3cc(cc(c3)OCCCCCCO/N=C/C(=O)N[C@@H]([C@@H](C)O)C(=O)N2)CSC[C@@H](C(N)=O)NC(=O)[C@H](CC(N)=O)NC(=O)[C@H](CCCCN)NC(=O)[C@H](C(C)C)NC(=O)[C@H](CC(=O)O)NC1=O [compound 104, TSL6- STCFLDVKNC] (TCFLDVKNC-NH2; linker N-2-9 via X3) | 3.51
7 | COCC[C@@H]1NC(=O)[C@@H]2CCCN2C(=O)[C@@H]2CSCc3cc(cc(c3)OCCCCCCC(=O)NCC(=O)N[C@@H](CCCNC(=N)N)C(=O)N2)CSC[C@@H](C(N)=O)NC(=O)[C@H](CCC(=O)O)NC(=O)[C@H](CCC(N)=O)NC(=O)[C@@H]2CCCN2C(=O)[C@H](CC(C)(C)C)NC(=O)[C@H](CC(=O)O)NC1=O [compound 80, TSLC7-GQCP{Hse(OMe)} D{tBuAla}PQEC] (GRCP[hSer](Me)D[tBuAla]PQEC-NH2; linker N-3-11 via X5) | 4.25
8 | CSCC[C@@H]1NC(=O)[C@H]([C@@H](C)O)NC(=O)[C@H](C)NC(=O)CNC(=O)[C@@H]2CSCc3cc(cc(c3)OCCCCCCO/N=C/C(=O)N[C@@H](Cc3ccccc3)C(=O)N2)CSC[C@@H](C(N)=O)NC(=O)[C@H](CCCCN)NC(=O)[C@H](CCCCN)NC1=O [compound 100, TSL6- SFCGATMKKC] (FCGATMKKC-NH2; linker N-2-9 via X3) | 3.79
9 | CC(C)C[C@@H]1NC(=O)[C@@H]2CCCN2C(=O)[C@@H]2CSCc3cc(cc(c3)OCCCCCCO/N=C/C(=O)N[C@@H](CCCCN)C(=O)N2)CSC[C@@H](C(N)=O)NC(=O)[C@H](C)NC(=O)[C@H](Cc2ccc(O)cc2)NC(=O)[C@@H]2CCCN2C(=O)[C@H]([C@@H](C)O)NC(=O)[C@H](CC(=O)O)NC1=O [compound 24, TSL6- SKCPLDTPYAC] (KCPLDTPYAC-NH2; linker N-2-10 via X3) | 6.29
10 | CC(C)C[C@H]1NC(=O)[C@@H]2CCCN2C(=O)[C@@H]2CSCc3cc(cc(c3)OCCCCCCO/N=C/C(=O)N[C@@H](C)C(=O)N2)CSC[C@@H](C(N)=O)NC(=O)[C@H](CO)NC(=O)[C@@H]2CCCN2C(=O)[C@H](C(C)C)NC(=O)[C@H](CC(=O)O)NC1=O [compound 74, TSL6- SACPLDVPSC] (ACP[dL]DVPSC-NH2; linker N-2-9 via X3) | 4.51
11 | CSCC[C@@H]1NC(=O)[C@@H]2CCCN2C(=O)[C@@H]2CSCc3cc(cc(c3)OCCCCCCO/N=C/C(=O)N[C@@H](C)C(=O)N2)CSC[C@@H](C(N)=O)NC(=O)[C@H](CCC(=O)O)NC(=O)[C@H](CCC(N)=O)NC(=O)[C@H](Cc2c[nH]c3ccccc23)NC(=O)[C@H](C(C)C)NC(=O)[C@H](CC(=O)O)NC1=O [compound 62, TSL6- SDCHDPPKVC] (ACPMDVWQEC-NH2; linker N-2-10 via X3) | 5.19

same assay, conditions: competition ELISA, 4 μg/mL α4β7 coated, MAdCAM and peptide mixture, 28° C.; read-out: IC50

Row | SMILES | pIC50
12 | CC[C@H](C)[C@@H]1NC(=O)[C@H](CC(=O)O)NC(=O)[C@H](CCSC)NC(=O)[C@@H]2CCCN2C(=O)[C@@H](NC(=O)[C@H](CCCNC(=N)N)NC(=O)[C@H](CO)NC(C)=O)CSSC[C@@H](C(=O)N[C@@H](CCCCNC(=O)CCOCCOCCOCCOCCOCCC(=O)NCCCC[C@H](NC(=O)[C@@H]2CSSC[C@H](NC(=O)[C@H](CCCNC(=N)N)NC(=O)[C@H](CO)NC(C)=O)C(=O)N3CCC[C@H]3C(=O)N[C@@H](CCSC)C(=O)N[C@@H](CC(=O)O)C(=O)N[C@@H]([C@@H](C)CC)C(=O)N[C@@H](C)C(=O)NCC(=O)N[C@@H](CCC(=O)O)C(=O)N2)C(N)=O)C(N)=O)NC(=O)[C@H](CCC(=O)O)NC(=O)CNC(=O)[C@H](C)NC1=O [SEQ ID NO: 109] (I: Ac-SRCPMDIAGECK-NH2 / II: Ac-SRCPMDIAGECK-NH2; disulfide I:3-I:11, II:3-II:11; linker I:12-II:12 via CO(CH2CH2O)5CH2CH2CO) | 5.76
13 | CC[C@H](C)[C@@H]1NC(=O)[C@H](C)NC(=O)[C@H](CC[S+](C)[O-])NC(=O)[C@@H]2CCCN2C(=O)[C@@H]2CSCc3cc(cc(c3)OCCCCCCON=CC(=O)N[C@@H](CCC(N)=O)C(=O)N2)CSC[C@@H](C(=O)O)NC(=O)[C@H]([C@@H](C)O)NC(=O)[C@@H]2CCCN2C1=O (some centres unmarked) [SEQ ID NO: 80] (QCP[Met(O)]AIPTC-OH; linker N-2-9 via X1) | 3.82
14 | CC[C@H](C)[C@@H]1NC(=O)C=NOCCCCCCOc2cc3cc(c2)CSC[C@H](NC1=O)C(=O)N[C@@H](CCCNC(=N)N)C(=O)N[C@@H]([C@@H](C)O)C(=O)N[C@@H](CC(=O)O)C(=O)N[C@@H](C(C)C)C(=O)N1CCC[C@H]1C(=O)N[C@@H]([C@@H](C)CC)C(=O)N[C@@H](CC(=O)O)C(=O)N[C@H](C(=O)O)CSC3 [SEQ ID NO: 98] (ICRTDVPIDC-OH; linker N-2-10 via X1) | 4.84
